Data as given in US20240067693A1, “POLYPEPTIDES AND USES THEREOF” (MEDIMMUNE LIMITED, priority 2020, published 2024).
Numbered stars: 1 amine (or outer) side, 2 acyl side, 3 side chain; on linkers, the order of the positions; unused ones are H or OH. Bridge positions count the residues as written; N and C are the ends. Square brackets hold non-standard residues; d marks the D form. Side chains are listed from the residue outwards. Peptide text beside a SMILES is read from it. * marks the point of attachment. C18 diacid = O=C(O)CCCCCCCCCCCCCCCCC(=O)*; γGlu = O=C(O)[C@H](CCC(=O)[*:2])N[*:1]; αMeF = C[C@](N)(Cc1ccccc1)C(=O)O; Dab = NCC[C@H](N)C(=O)O; Aib = CC(C)(N)C(=O)O

Legend:
[1] = target: T1, human amylin receptor (calcitonin receptor co-expressed with receptor activity modifying protein, RAMP3) (hAMYR3) (Homo sapiens, UniProt O60896+P30988); assay: cAMP production in 1321N1 cells with stable recombinant expression of human amylin receptor (hAMYR3); assay type: cell-based; conditions: for Ratio (selectivity hAMYR vs hCTR, ratio of EC50 values at the two receptors): EC50 hCTR / EC50 hAMYR3; for EC50: cAMP, 1321N1 cells, assay buffer with 0.1% BSA, read-out: EC50 (pM) hAMYR3
T1 construct: expressed in transfected cells
T1 sequence (P30988 25-474): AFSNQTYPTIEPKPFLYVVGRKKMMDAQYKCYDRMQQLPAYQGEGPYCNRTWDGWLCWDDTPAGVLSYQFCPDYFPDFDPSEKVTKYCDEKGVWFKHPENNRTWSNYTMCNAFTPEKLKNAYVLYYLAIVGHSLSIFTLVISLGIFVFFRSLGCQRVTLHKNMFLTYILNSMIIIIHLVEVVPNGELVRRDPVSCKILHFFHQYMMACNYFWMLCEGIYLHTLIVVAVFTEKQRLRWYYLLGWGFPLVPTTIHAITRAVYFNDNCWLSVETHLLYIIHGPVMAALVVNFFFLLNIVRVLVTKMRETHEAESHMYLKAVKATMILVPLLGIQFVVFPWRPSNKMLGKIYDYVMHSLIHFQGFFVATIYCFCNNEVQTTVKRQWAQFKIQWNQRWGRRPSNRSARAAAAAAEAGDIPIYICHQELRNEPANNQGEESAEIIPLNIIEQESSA
T1 sequence (O60896 24-148 partner): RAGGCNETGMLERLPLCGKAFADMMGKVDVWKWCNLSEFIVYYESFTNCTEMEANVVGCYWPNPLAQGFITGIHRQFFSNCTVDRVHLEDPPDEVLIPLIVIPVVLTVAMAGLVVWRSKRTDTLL
How it was run: (§1)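 Receptor-expressing cells (human receptors in 1321N1, rat receptors in HEK) incubated 30 min at room temperature with peptide in HBSS/HEPES pH 7.4, 0.1% BSA, 0.5 mM IBMX. cAMP read by HTRF; EC50 from 4-parameter fit as % of maximal amylin or calcitonin response.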

[2] = target: T2, human calcitonin receptor (hCTR) (Homo sapiens, UniProt P30988); assay: cAMP production in 1321N1 cells with stable recombinant expression of human calcitonin receptor (hCTR); assay type: cell-based; conditions: cAMP, 1321N1 cells, assay buffer with 0.1% BSA; read-out: EC50 (pM) hCTR
T2 construct: expressed in transfected cells
T2 sequence (P30988 25-474): T1 sequence (P30988 25-474)
How it was run: as §1

[3] = Thioflavin T fibrillation assay; assay type: physicochemical; conditions: for Time taken to detect increase in fluorescence intensity: ThT fibrillation assay, peptide 1 mg/mL in 25 mM sodium acetate buffer pH 4.0, 6 days at 37 °C with shaking, >144 h = no increase
How it was run: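 Peptides at 1 mg/mL in 25 mM sodium acetate pH 4.0 with ThT (from 0.25 mM stock), incubated 6 days at 37 °C with intermittent orbital shaking at 500–750 rpm. Fluorescence (ex 444/em 480 nm) read every 30 min; value is average time to a rise in baseline-corrected signal.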

lean rats = assay: Rat acute food intake study; assay type: in vivo; conditions: lean male Sprague Dawley rats, 20 nmol/kg subcutaneously
How it was run: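 Male Sprague Dawley rats (n=7/group), fasted 6 h, received 20 nmol/kg test compound or 60 nmol/kg pramlintide subcutaneously 30 min before food return at dark onset. Food intake recorded automatically in home cages over 3 days, binned hourly and analysed as cumulative dark-period intake; body weight taken daily.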

| Ratio (selectivity hAMYR vs hCTR, ratio of EC50 values at the two receptors) [1] | EC50 [1] [pM] | EC50 [2] [pM] | fibril-forming tendency ([3]; ThT assay, 1 mg/mL, pH 4.0, 37 °C, compared to pramlintide) | Time taken to detect increase in fluorescence intensity [3] [h] | Structure (SMILES) | Cummulative food intake (% vehicle treated intake) At 12 h (lean rats) [% vehicle treated intake] | Cummulative food intake (% vehicle treated intake) At 24 h (lean rats) [% vehicle treated intake] | Cummulative food intake (% vehicle treated intake) At 48 h (lean rats) [% vehicle treated intake] |
| --- | --- | --- | --- | --- | --- | --- | --- | --- |
| 5 | 246 | 1350 | increases the fibril-forming tendency | <5 | CC[C@H](C)[C@H](NC(=O)[C@@H]1CCCN1C(=O)CNC(=O)[C@H](Cc1ccccc1)NC(=O)[C@H](CC(N)=O)NC(=O)[C@H](CC(N)=O)NC(=O)[C@H](CO)NC(=O)[C@H](CO)NC(=O)[C@H](Cc1c[nH]cn1)NC(=O)[C@@H](NC(=O)[C@H](CC(C)C)NC(=O)[C@H](Cc1ccccc1)NC(=O)[C@H](CC(N)=O)NC(=O)[C@H](C)NC(=O)[C@H](CC(C)C)NC(=O)[C@H](CCCNC(=N)N)NC(=O)[C@H](CCC(N)=O)NC(=O)[C@@H](NC(=O)[C@H](C)NC(=O)[C@@H]1CSSC[C@H](NC(=O)[C@H](CCCCN)NC(=O)CC[C@H](NC(=O)CCCCCCCCCCCCCCCCC(=O)O)C(=O)O)C(=O)N[C@@H](CC(N)=O)C(=O)N[C@@H]([C@@H](C)O)C(=O)N[C@@H](C)C(=O)N[C@@H]([C@@H](C)O)C(=O)N1)[C@@H](C)O)C(C)C)C(=O)N[C@@H](CC(C)C)C(=O)N1CCC[C@H]1C(=O)N1CCC[C@H]1C(=O)N[C@H](C(=O)N[C@@H](CC(N)=O)C(=O)N[C@H](C(=O)NCC(=O)N[C@@H](CO)C(=O)N[C@@H](CC(N)=O)C(=O)N[C@H](C(=O)N[C@@H](Cc1ccc(O)cc1)C(N)=O)[C@@H](C)O)C(C)C)[C@@H](C)O [Peptide 3] ({C18 diacid-γGlu}-KCNTATCATQRLANFLVHSSNNFGPILPPTNVGSNTY-NH2; disulfide 2-7) | 13.4 | 14.4 | 30.3 |
| 54 | 375 | 20200 |  | 7 | CC[C@H](C)[C@H](NC(=O)[C@H](C)NC(=O)[C@@H]1CCCN1C(=O)[C@H](Cc1ccccc1)NC(=O)[C@H](CC(N)=O)NC(=O)[C@H](CCN)NC(=O)[C@H](CO)NC(=O)[C@H](CO)NC(=O)[C@H](Cc1c[nH]cn1)NC(=O)[C@@H](NC(=O)[C@H](CC(C)C)NC(=O)[C@H](Cc1ccccc1)NC(=O)[C@H](CC(N)=O)NC(=O)[C@H](C)NC(=O)[C@H](CC(C)C)NC(=O)[C@H](CCCNC(=N)N)NC(=O)[C@H](CCC(N)=O)NC(=O)[C@@H](NC(=O)[C@H](C)NC(=O)[C@@H]1CSSC[C@H](NC(=O)[C@@H](N)CCCCNC(=O)CC[C@H](NC(=O)CC[C@H](NC(=O)CCCCCCCCCCCCCCCCC(=O)O)C(=O)O)C(=O)O)C(=O)N[C@@H](CC(N)=O)C(=O)N[C@@H]([C@@H](C)O)C(=O)N[C@@H](C)C(=O)N[C@@H]([C@@H](C)O)C(=O)N1)[C@@H](C)O)C(C)C)C(=O)N[C@@H](CC(C)C)C(=O)N[C@@H](CO)C(=O)N1CCC[C@H]1C(=O)N[C@H](C(=O)N[C@@H](CC(N)=O)C(=O)N[C@H](C(=O)NCC(=O)N[C@@H](CO)C(=O)N[C@@H](CC(N)=O)C(=O)N[C@H](C(=O)N[C@@H](Cc1ccc(O)cc1)C(N)=O)[C@@H](C)O)C(C)C)[C@@H](C)O [Peptide 8, K(γE-γE-C18diacid)[CNTATC]ATQRLANFLVHSS(Dab)NFPAILSPTNVGSNTY-amide] (H-K([γGlu-γGlu-C18 diacid])CNTATCATQRLANFLVHSS[Dab]NFPAILSPTNVGSNTY-NH2; disulfide 2-7) | 28.1 | 42.7 | 68.8 |
| 42 | 320 | 13500 |  | 7 | CC[C@H](C)[C@H](NC(=O)[C@H](C)NC(=O)[C@@H]1CCCN1C(=O)[C@H](Cc1ccccc1)NC(=O)[C@H](CC(N)=O)NC(=O)C(C)(C)NC(=O)[C@H](CO)NC(=O)[C@H](CO)NC(=O)[C@H](Cc1c[nH]cn1)NC(=O)[C@@H](NC(=O)[C@H](CC(C)C)NC(=O)[C@H](Cc1ccccc1)NC(=O)[C@H](CC(N)=O)NC(=O)[C@H](C)NC(=O)[C@H](CC(C)C)NC(=O)[C@H](CCCNC(=N)N)NC(=O)[C@H](CCC(N)=O)NC(=O)[C@@H](NC(=O)[C@H](C)NC(=O)[C@@H]1CSSC[C@H](NC(=O)[C@@H](N)CCCCNC(=O)CC[C@H](NC(=O)CC[C@H](NC(=O)CCCCCCCCCCCCCCCCC(=O)O)C(=O)O)C(=O)O)C(=O)N[C@@H](CC(N)=O)C(=O)N[C@@H]([C@@H](C)O)C(=O)N[C@@H](C)C(=O)N[C@@H]([C@@H](C)O)C(=O)N1)[C@@H](C)O)C(C)C)C(=O)N[C@@H](CC(C)C)C(=O)N[C@@H](CO)C(=O)N1CCC[C@H]1C(=O)N[C@H](C(=O)N[C@@H](CC(N)=O)C(=O)N[C@H](C(=O)NCC(=O)N[C@@H](CO)C(=O)N[C@@H](CC(N)=O)C(=O)N[C@H](C(=O)N[C@@H](Cc1ccc(O)cc1)C(N)=O)[C@@H](C)O)C(C)C)[C@@H](C)O [Peptide 9, K(γE-γE-C18diacid)[CNTATC]ATQRLANFLVHSS(Aib)NFPAILSPTNVGSNTY-amide] (H-K([γGlu-γGlu-C18 diacid])CNTATCATQRLANFLVHSS[Aib]NFPAILSPTNVGSNTY-NH2; disulfide 2-7) | 21.9 | 30.8 | 56.5 |
| 15 | 183 | 2730 |  | >144 | CC[C@H](C)[C@H](NC(=O)[C@@H]1CCCN1C(=O)CNC(=O)[C@](C)(Cc1ccccc1)NC(=O)[C@H](CC(N)=O)NC(=O)[C@H](CC(N)=O)NC(=O)[C@H](CO)NC(=O)[C@H](CO)NC(=O)[C@H](Cc1c[nH]cn1)NC(=O)[C@H](CCCNC(=N)N)NC(=O)[C@H](CC(C)C)NC(=O)[C@H](Cc1ccccc1)NC(=O)[C@H](CCC(=O)O)NC(=O)[C@H](C)NC(=O)[C@H](CC(C)C)NC(=O)[C@H](CCCNC(=N)N)NC(=O)[C@H](CCC(N)=O)NC(=O)[C@@H](NC(=O)[C@H](C)NC(=O)[C@@H]1CSSC[C@H](NC(=O)CC[C@H](NC(=O)CCCCCCCCCCCCCCCCC(=O)O)C(=O)O)C(=O)N[C@@H](CC(N)=O)C(=O)N[C@@H]([C@@H](C)O)C(=O)N[C@@H](C)C(=O)N[C@@H]([C@@H](C)O)C(=O)N1)[C@@H](C)O)C(=O)N[C@@H](CC(C)C)C(=O)N1CCC[C@H]1C(=O)N1CCC[C@H]1C(=O)N[C@H](C(=O)N[C@@H](CC(N)=O)C(=O)N[C@H](C(=O)NCC(=O)N[C@@H](CO)C(=O)N[C@@H](CC(N)=O)C(=O)N[C@H](C(=O)N[C@@H](Cc1ccc(O)cc1)C(N)=O)[C@@H](C)O)C(C)C)[C@@H](C)O [Peptide 10, C18diacid-γE-[CNTATC]ATQRLAEFLRHSSNN(αMePhe)GPILPPTNVGSNTY-amide] ({C18 diacid-γGlu}-CNTATCATQRLAEFLRHSSNN[αMeF]GPILPPTNVGSNTY-NH2; disulfide 1-6) | 18.8 | 24.6 | 46.6 |
